Series [1] has as its system IL-8 release, d-U937 cells. Description: LPS-induced IL-8 release in d-U937 cells. Type of series: cell-based. The settings on record: Homo sapiens, dU937; Table 4c1; read-out: LPS Induced Release of Cytokine in d-U937 Cells, IL-8 IC50. In a few lines:
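IL-8 release after a 4 hr challenge with LPS (0.1 μg/mL, E. coli 0111:B4) following a 2 hr compound pretreatment. Cells were human U937 monocytes differentiated to macrophage-type with PMA 100 ng/mL for 48–72 hr. Relative 50% effective concentration derived from concentration–response data.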

Series [2] relates to ICAM-1 expression, BEAS2B cells. Description: Poly I:C-induced ICAM-1 expression in BEAS2B cells. Type of series: cell-based. As to conditions: Homo sapiens, BEAS-2B; read-out: Poly IC induced ICAM1 in BEAS2B, IC50. In a few lines:
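Cell-based ELISA for surface ICAM-1 in human BEAS2B cells 18 h after transfection with the RNA-virus mimic poly I:C (1 μg/mL, with Oligofectamine), compounds added 2 h beforehand. OD450–655 divided by Crystal Violet OD595 per well; percent inhibition relative to vehicle.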

Another series relates to HRV16 in MRC5 cells. Description: HRV16 induced CPE in MRC5 cells. In kind it is cell-based. The settings on record: Human rhinovirus sp., HRV-16. Here is the method:
(j) Assessment of HRV16 Induced CPE in MRC5 Cells
MRC-5 cells are infected with HRV16 at an MOI of 1n DMEM containing 5% FCS and 1.5 mM magnesium chloride, followed by incubation for 1 hr at 33° C. to promote adsorption. The supernatants are aspirated, and then fresh media added followed by incubation for 4 days. Where appropriate, cells are pre-incubated with compound or DMSO for 2 hr, and the compounds and DMSO added again after washout of the virus.
After washing, 1% SDS in distilled water (100 μL) is added to each well, and the plates are shaken lightly for 1-2 hr prior to reading the absorbance at 660 nm. The percentage inhibition for each well is calculated. The IC50 value is calculated from the concentration-response curve generated by the serial dilutions of the test compounds.

Series [3] deals with TNFα release, d-U937 cells. The experiment in a line: LPS-induced TNFα release in d-U937 cells. Type of series: cell-based. The settings on record: Homo sapiens, dU937; relative to 10 μg/mL BIRB796; Table 4c1; read-out: LPS Induced Release of Cytokine in d-U937 Cells, TNFα REC50. In a few lines: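 Sandwich ELISA quantifies cytokine in supernatants after 4 hr LPS challenge (0.1 μg/mL) of PMA-differentiated (100 ng/mL, 48–72 hr) U937 macrophages given compound 2 hr beforehand. REC50 derived from concentration-response curve, inhibition calculated relative to vehicle.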

Another series has as its target Syk (Homo sapiens, UniProt P43405). The experiment in a line: Syk enzyme inhibition (FRET). Type of series: biochemical. In a few lines: (§1)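 Kinase activity is measured on a dual-labelled synthetic peptide by FRET. ATP is supplied as an 800 μM solution for c-Src and a 60 μM solution for Syk. Compound is tested at four added concentrations, 4 to 0.004 μg/mL.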
Series [4] deals with T1, GSK3α (Homo sapiens, UniProt P49840). The experiment in a line: GSK 3α enzyme inhibition (FRET), Method 1. Type of series: biochemical. As to conditions: Table 4a1. In a few lines: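 GSK3α was preincubated with test compound for 2 hr at RT, then a FRET peptide substrate and ATP were added for 1 hr. Protease development for 1 hr cleaved only non-phosphorylated peptide, and phosphorylation was read as the coumarin/fluorescein emission ratio. Concentrations given are those of the added solutions: enzyme 500 ng/mL, peptide 8 μM, ATP 40 μM.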
T1 sequence (P49840 whole entry): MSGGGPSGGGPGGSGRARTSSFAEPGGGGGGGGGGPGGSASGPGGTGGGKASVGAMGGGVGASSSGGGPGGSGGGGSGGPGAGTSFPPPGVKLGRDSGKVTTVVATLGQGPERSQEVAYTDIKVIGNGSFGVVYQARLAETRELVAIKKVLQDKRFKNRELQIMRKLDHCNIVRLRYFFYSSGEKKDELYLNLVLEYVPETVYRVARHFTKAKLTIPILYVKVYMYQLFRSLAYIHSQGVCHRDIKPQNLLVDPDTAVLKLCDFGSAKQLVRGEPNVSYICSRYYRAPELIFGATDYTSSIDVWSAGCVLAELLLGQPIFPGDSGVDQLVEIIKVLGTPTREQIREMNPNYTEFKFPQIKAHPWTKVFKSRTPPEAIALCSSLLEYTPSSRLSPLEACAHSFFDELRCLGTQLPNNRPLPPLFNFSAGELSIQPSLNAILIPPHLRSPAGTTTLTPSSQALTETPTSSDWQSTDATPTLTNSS

The test system of a further series is d-U937 cells. The experiment in a line: Cell viability: MTT assay. In kind it is cell-based, human. As to conditions: 1 μg/mL. Put shortly:
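MTT reduction (1 h, DMSO solubilisation, A550) measured after compound treatment at 1 or 10 μg/mL of differentiated U937 cells for 4 h (5% FCS RPMI1640) or 24 h (10% FCS). Percentage viability loss computed relative to 0.5% DMSO vehicle, with increases tabulated as negative values.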

In the next series the target is cSrc (Homo sapiens, UniProt P12931). Description: c-Src enzyme inhibition (FRET). In kind it is biochemical. Put shortly: as §1
cSrc, sequence (P12931 whole entry): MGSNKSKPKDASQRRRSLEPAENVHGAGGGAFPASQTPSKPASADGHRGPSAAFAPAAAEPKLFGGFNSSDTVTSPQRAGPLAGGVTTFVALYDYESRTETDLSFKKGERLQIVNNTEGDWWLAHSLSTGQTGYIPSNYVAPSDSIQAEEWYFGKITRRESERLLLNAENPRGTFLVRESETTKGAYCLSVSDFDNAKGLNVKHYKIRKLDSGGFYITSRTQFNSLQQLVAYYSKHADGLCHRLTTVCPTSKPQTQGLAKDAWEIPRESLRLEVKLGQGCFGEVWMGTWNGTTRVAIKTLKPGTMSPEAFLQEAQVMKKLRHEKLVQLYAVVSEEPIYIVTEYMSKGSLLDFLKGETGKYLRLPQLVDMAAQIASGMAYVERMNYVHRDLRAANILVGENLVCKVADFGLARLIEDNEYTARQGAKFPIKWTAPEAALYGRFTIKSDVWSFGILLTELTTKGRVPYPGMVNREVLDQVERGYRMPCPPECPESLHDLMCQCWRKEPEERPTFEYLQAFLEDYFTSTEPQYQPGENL
In a further series the test system is PBMC cells. Description: Cell mitosis assay. In kind it is cell-based. The settings on record: Homo sapiens, read-out: % Inhibition of mitosis in PBMC cells at 5 μg/mL. Here is the method: PBMCs from healthy subjects are separated from whole blood (Quintiles, London, UK) using a density gradient (Histopaque®-1077, Sigma-Aldrich, Poole, UK). The PBMCs (3 million cells per sample) are subsequently treated with 2% PHA (Sigma-Aldrich, Poole, UK) for 48 hr, followed by a 20 hr exposure to varying concentrations of test compounds. At 2 hr before collection, PBMCs are treated with demecolcine (0.1 μg/mL; Invitrogen, Paisley, UK) to arrest cells in metaphase. […] Fluorescence is observed using an ATTUNE flow cytometer (Invitrogen, Paisley, UK), gating for lymphocytes.

A further series has as its system IL-8 release, PBMCs. The experiment in a line: LPS-induced IL-8 release in PBMC cells. Type of series: cell-based. The settings on record: Homo sapiens, LPS stimulated, read-out: IC50 Values for Inhibition of Cytokine Release, PBMCs, IL-8. In a few lines: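 PBMCs from healthy donors pretreated with compound for 2 h, then stimulated with 1 ng/ml LPS (E. coli 0111:B4) for 24 h at 37 °C, 5% CO2. Supernatant IL-8 and TNFα measured by sandwich ELISA with fluorescence read-out.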

Series [5] concerns the target T1, GSK3α. The experiment in a line: GSK 3α enzyme inhibition (FRET), Method 2. Type of series: biochemical. As to conditions: Table 4a2, different laboratory.
In the next series the test system is IL-2 release, PBMCs. Description: IL-2 release in CD3/CD28 stimulated PBMC cells. Type of series: cell-based. The settings on record: Homo sapiens, read-out: IC50 Values for Inhibition of Cytokine Release, PBMCs, IL-2. Here is the method: (§2) (c) IL-2 and IFN Gamma Release in CD3/CD28 Stimulated PBMC Cells
(§3) PBMCs from healthy subjects are separated from whole blood using a density gradient (Lymphoprep, Axis-Shield Healthcare). Cells are added to a 96 well plate pre-coated with a mixture of […] monoclonal antibodies (0.3 ug/ml eBioscience and 3 ug/ml BD Pharmingen respectively). Compound at the desired concentration is then added to the wells and the plate left for 3 days under normal tissue culture conditions. Supernatants are harvested and IL-2 and IFN gamma release determined by Sandwich ELISA (Duo-set, R&D System). The IC50 is determined from the dose response curve.

The test system of the next series is IFN gamma release, PBMCs. Description: IFN gamma release in CD3/CD28 stimulated PBMC cells. The settings on record: Homo sapiens, read-out: IC50 Values for Inhibition of Cytokine Release, PBMCs, IFNγ. Type of series: cell-based. As for the experimental part: as §2, §3
Setting [6] is: Table 4a2, different laboratory.

The results in this text go back to patent US20140057915A1, “KINASE INHIBITORS” (TOPIVERT PHARMA LIMITED, priority 2012, published 2014).

As for `COc1ccc(C(=O)NCCN2CCOCC2)cc1Nc1nccc(Oc2ccc(NC(=O)Nc3cc(C(C)C)nn3-c3ccc(C)cc3)c3ccccc23)n1` [Example 30, 3-((4-((4-(3-(3-isopropyl-1-(p-tolyl)-1H-pyrazol-5-yl)ureido)naphthalen-1-yl)oxy)pyrimidin-2-yl)amino)-4-methoxy-N-(2-morpholinoethyl)benzamide], the IC50 in series [1] was 9 nM; in series [2], 117 nM; in the series on HRV16 in MRC5 cells, 0.43 nM; on Syk (Table 4a1), 103 nM; on GSK3α [4], over 13200 nM; on cSrc (Table 4a1), 1 nM. Moreover, the EC50 in series [3] turned out to be 2.1 nM. Also, the “Cell viability at time point in d-U937 cells, 4 h” value in the series with d-U937 cells is “−ve (−ve and +ve indicate that the value is below and above respectively, the no significant effect threshold, defined as 30% inhibition at 1 μg/mL at the time point indicated)”. Besides, the “Cell viability at time point in d-U937 cells, 24 h” value (shortened to “Cell viability at time point … 24 h”) in the series on d-U937 cells was “−ve (−ve and +ve indicate that the value is below and above respectively, the no significant effect threshold, defined as 30% inhibition at 1 μg/mL at the time point indicated)”.
Consider `Cc1ccc(-n2nc(C(C)C)cc2NC(=O)Nc2ccc(Oc3ccnc(Nc4cc(C)cc(C(=O)NCCN5CCOCC5)c4)n3)c3ccccc23)cc1` [Example 44, 3-((4-((4-(3-(3-isopropyl-1-(p-tolyl)-1H-pyrazol-5-yl)ureido)naphthalen-1-yl)oxy)pyrimidin-2-yl)amino)-5-methyl-N-(2-morpholinoethyl)benzamide], for which the IC50 in series [1] was determined as 0.3 nM; in series [2], 1.9 nM; against Syk (Table 4a1) it was 17 nM; against GSK3α [4], 3950 nM; at cSrc (Table 4a1), 9 nM. The inhibition at 5 µg/mL with PBMC cells came out at 37.2%. For the same compound, in series [3], the EC50 came to 0.2 nM. In the series on d-U937 cells, the “Cell viability at time point in d-U937 cells, 4 h” value was “−ve (−ve and +ve indicate that the value is below and above respectively, the no significant effect threshold, defined as 30% inhibition at 1 μg/mL at the time point indicated)”. Also, the “Cell viability at time point … 24 h” value in the series with d-U937 cells was “−ve (−ve and +ve indicate that the value is below and above respectively, the no significant effect threshold, defined as 30% inhibition at 1 μg/mL at the time point indicated)”.
On to `COc1ccc(-n2nc(C(C)C)cc2NC(=O)Nc2ccc(Oc3ccnc(Nc4cc(OC)cc(C(=O)NCCO)c4)n3)c3ccccc23)cc1` [Example 65, N-(2-hydroxyethyl)-3-((4-((4-(3-(3-isopropyl-1-(4-methoxyphenyl)-1H-pyrazol-5-yl)ureido)naphthalen-1-yl)oxy)pyrimidin-2-yl)amino)-5-methoxybenzamide], for which the IC50 in series [1] was 0.6 nM; in series [2] it was 8.3 nM; on Syk (Table 4a1), 61 nM; against GSK3α [4] it was over 14200 nM; at cSrc (Table 4a1), 8 nM. Moreover, the inhibition at 5 µg/mL in the series with PBMC cells was 36.7%. For the same compound, in series [3], the EC50 was 1.7 nM. Besides, the “Cell viability at time point in d-U937 cells, 4 h” value in the series on d-U937 cells was “−ve (−ve and +ve indicate that the value is below and above respectively, the no significant effect threshold, defined as 30% inhibition at 1 μg/mL at the time point indicated)”. For the same compound, the “Cell viability at time point … 24 h” value in the series on d-U937 cells is “−ve (−ve and +ve indicate that the value is below and above respectively, the no significant effect threshold, defined as 30% inhibition at 1 μg/mL at the time point indicated)”.
On to `C#Cc1cc(Nc2nccc(Oc3ccc(NC(=O)Nc4cc(C(C)(C)C#N)nn4-c4ccc(C)cc4)c4ccccc34)n2)cc(C(=O)NCCN2CCOCC2)c1` [Example 78, 3-((4-((4-(3-(3-(2-Cyanopropan-2-yl)-1-(p-tolyl)-1H-pyrazol-5-yl)ureido)-naphthalen-1-yl)oxy)pyrimidin-2-yl)amino)-5-ethynyl-N-(2-morpholinoethyl)benzamide], for which the IC50 in the series with IL-8 release, PBMCs came to 0.9 nM; against GSK3α [5], 2810 nM; in the series on IL-2 release, PBMCs, 27.3 nM; in the series with IFN gamma release, PBMCs it was 2.4 nM; against Syk (setting [6]), 23 nM; against cSrc (setting [6]), 8 nM. Moreover, the inhibition at 5 µg/mL in the series with PBMC cells was determined as 2.1%.
On to `C#Cc1cc(Nc2nccc(Oc3ccc(NC(=O)Nc4cc(C(C)(C)C)nn4-c4ccc(C)cc4)c4ccccc34)n2)cc(C(=O)NC(C)(C)CN2CCOCC2)c1` [Example 82, 3-((4-((4-(3-(3-(tert-Butyl)-1-(p-tolyl)-1H-pyrazol-5-yl)ureido)naphthalen-1-yl)oxy)pyrimidin-2-yl)amino)-5-ethynyl-N-(2-methyl-1-morpholinopropan-2-yl)-benzamide], for which the IC50 with IL-8 release, PBMCs was 7.1 nM; against GSK3α [5] it was 12200 nM; in the series with IL-2 release, PBMCs it was 37.4 nM; with IFN gamma release, PBMCs, 3.9 nM. In the series with PBMC cells, the inhibition at 5 µg/mL was -6.3%.
For the compound `C#Cc1cc(Nc2nccc(Oc3ccc(NC(=O)Nc4cc(C(C)(C)C)nn4-c4ccc(OC)cc4)c4ccccc34)n2)cc(C(=O)NCCOC)c1` [Example 84, 3-((4-((4-(3-(3-(tert-Butyl)-1-(4-methoxyphenyl)-1H-pyrazol-5-yl)ureido)-naphthalen-1-yl)oxy)pyrimidin-2-yl)amino)-5-ethynyl-N-(2-methoxyethyl)benzamide], the IC50 with IL-8 release, PBMCs is 1.6 nM; on GSK3α [5], at least 13800 nM; with IL-2 release, PBMCs, 16 nM; in the series with IFN gamma release, PBMCs it was 2.2 nM; against Syk (setting [6]) it was 33 nM; on cSrc (setting [6]), 15 nM. Besides, the inhibition at 5 µg/mL with PBMC cells worked out at 0.5%.
With `C#Cc1cc(Nc2nccc(Oc3ccc(NC(=O)Nc4cc(C(C)(C)C)nn4-c4ccc(OC)cc4)c4ccccc34)n2)cc(C(=O)N[C@@H](C)COC)c1` [Example 85, (S)-3-((4-((4-(3-(3-(tert-Butyl)-1-(4-methoxyphenyl)-1H-pyrazol-5-yl)ureido)-naphthalen-1-yl)oxy)pyrimidin-2-yl)amino)-5-ethynyl-N-(1-methoxypropan-2-yl)-benzamide], the IC50 with IL-8 release, PBMCs is 2.8 nM; against GSK3α [5], 7950 nM; in the series on IL-2 release, PBMCs, 27.3 nM; in the series with IFN gamma release, PBMCs, 3.1 nM; against Syk (setting [6]) it was 92 nM; against cSrc (setting [6]), 33 nM. Further, the inhibition at 5 µg/mL with PBMC cells stood at 6.6%.
